Assay results as given in ChEMBL document CHEMBL1151290, “Chemical constituents of Brazilian propolis and their cytotoxic activities” (1998).
Values after ≈ are worked out from the molar mass of the structure shown.

What was measured:
[1] = test system: HT-1080; assay: Cytotoxicity against human HT1080 cells after 24 hrs by MTT assay; assay type: functional; details: HT-1080, 24 h, read-out: ED50 (the source's name)
[2] = Cytotoxicity against mouse 26-L5 cells after 24 hrs by MTT assay; assay type: functional; details: read-out: ED50 (the source's name)

Which EC50 [1] does the source give for COc1cc([C@H]2Oc3c(OC)cc(/C=C/COC(C)=O)cc3[C@@H]2COC(C)=O)ccc1O [DIMERICCONIFERYLACETATE] here?
The EC50 was 38.9 µg/mL (≈ 88 µM).

What about the EC50 [2] of the same compound?
The EC50 was 39.9 µg/mL (≈ 90.1 µM).

For C=C1CC[C@@H]2[C@](C)(CCC[C@]2(C)C(=O)O)[C@H]1CC/C(C)=C/COC(C)=O, which EC50 [1] is on record?
Its EC50 is 70.1 µg/mL (≈ 193 µM).

What about the EC50 [2] of the same compound?
The EC50 was 73.3 µg/mL (≈ 202 µM).

Which results are given for C=C[C@](C)(O)CC[C@H]1C(=C)CC[C@@H]2[C@]1(C)CCC[C@]2(C)C(=O)O [CUPRESSICACID]?
EC50 [1]: 94.9 µg/mL (≈ 296 µM); EC50 [2]: > 100 µg/mL

Which results are given for COc1cc(/C=C/C=O)ccc1O [CONIFERYL ALDEHYDE]?
EC50 [1]: 4.05 µg/mL (≈ 22.7 µM); EC50 [2]: 10.4 µg/mL (≈ 58.6 µM)

For COc1ccc(-c2oc3cc(O)c(OC)c(O)c3c(=O)c2O)cc1 [BETULETOL], which EC50 [1] is on record?
Its EC50 is 5.83 µg/mL (≈ 17.7 µM).

And the EC50 [2]?
The EC50 was 4.95 µg/mL (≈ 15 µM).

What does the source list for COc1cccc2c1C(=O)c1c(O)c3c(c(O)c1C2=O)C[C@@](O)(C(=O)CO)C[C@@H]3O[C@H]1C[C@H](N)[C@H](O)[C@H](C)O1.Cl [DOXORUBICIN HYDROCHLORIDE]?
EC50 [1]: 0.034 µg/mL; EC50 [2]: 0.015 µg/mL

With C=C1CC[C@@H]2[C@](C)(CCC[C@]2(C)C(=O)O)[C@H]1CC/C(C)=C/CO [ISOCUPRESSIC ACID] as the compound, how does the EC50 [1] read?
Its EC50 is 72.9 µg/mL (≈ 228 µM).

And the EC50 [2]?
The EC50 was 63.5 µg/mL (≈ 198 µM).

For CC(C)=CCc1cc(/C=C/C(=O)O)cc2c1OC(C)(C)C(O)C2 (stereo unspecified), which EC50 [1] is on record?
Its EC50 is 71.5 µg/mL (≈ 226 µM).

What about the EC50 [2] of the same compound?
Its EC50 is 77.1 µg/mL (≈ 244 µM).

Which results are given for COc1ccc([C@H]2Oc3cc(O)cc(O)c3C(=O)[C@@H]2O)cc1?
EC50 [1]: 27 µg/mL (≈ 89.2 µM); EC50 [2]: 71 µg/mL (≈ 235 µM)

Which EC50 [1] does the source give for C=C(C)[C@H]1Cc2cc(C(C)=O)ccc2O1 [TREMETONE] here?
Its EC50 is 57.4 µg/mL (≈ 284 µM).

And the EC50 [2]?
The EC50 was 58.1 µg/mL (≈ 287 µM).

Which EC50 [1] does the source give for C=C1CC[C@@H]2[C@](C)(CCC[C@]2(C)C(=O)O)[C@H]1CC/C(C)=C/C(=O)OC here?
Its EC50 is 72.8 µg/mL (≈ 209 µM).

What about the EC50 [2] of the same compound?
Its EC50 is > 100 µg/mL.

For C=C(CO)[C@H]1Cc2cc(C(C)=O)c(O)cc2O1, which EC50 [1] is on record?
The EC50 was 45.5 µg/mL (≈ 194 µM).

And the EC50 [2]?
The EC50 was 57.1 µg/mL (≈ 244 µM).

With CC(C)=CCc1cc(/C=C/C(=O)O)ccc1OC(=O)CCc1ccccc1 [BACCHARIN] as the compound, how does the EC50 [1] read?
The EC50 was 25.9 µg/mL (≈ 71.2 µM).

What about the EC50 [2] of the same compound?
Its EC50 is 77.9 µg/mL (≈ 214 µM).

Which EC50 [1] does the source give for COc1ccc(-c2oc3cc(O)cc(O)c3c(=O)c2OC)cc1 [ERMANIN] here?
Its EC50 is 2.3 µg/mL (≈ 7.32 µM).

What about the EC50 [2] of the same compound?
Its EC50 is 7.64 µg/mL (≈ 24.3 µM).

For COc1ccc(-c2oc3cc(O)cc(O)c3c(=O)c2O)cc1 [KAEMPFERIDE], which EC50 [1] is on record?
Its EC50 is 2.91 µg/mL (≈ 9.69 µM).

And the EC50 [2]?
The EC50 was 5.95 µg/mL (≈ 19.8 µM).

For C=C1CC[C@@H]2[C@](C)(CCC[C@]2(C)C(=O)O)[C@H]1CC/C(C)=C/C(=O)O [AGATHIC ACID], which EC50 [1] is on record?
The EC50 was 75.4 µg/mL (≈ 226 µM).

And the EC50 [2]?
The EC50 was 95.9 µg/mL (≈ 287 µM).

Which EC50 [1] does the source give for CC(C)=CCc1cc(/C=C/C(=O)O)cc2c1OC(C)(C)C=C2 [CULIFOLIN] here?
The EC50 was 46.9 µg/mL (≈ 157 µM).

What about the EC50 [2] of the same compound?
The EC50 was 50.2 µg/mL (≈ 168 µM).

Which EC50 [1] does the source give for CC(C)=CCc1cc(/C=C/C(=O)O)cc(CC=C(C)C)c1O [ARTEPILLIN] here?
Its EC50 is 45.5 µg/mL (≈ 151 µM).

What about the EC50 [2] of the same compound?
Its EC50 is 59.3 µg/mL (≈ 197 µM).
